# Where two headings read alike, the source gives them in different places.
# How the values were obtained:
# [1] = test system: Alternaria alternata; test: In vitro poisoned food technique against fungus (Ex. 20); assay type: cell-based; conditions: poisoned food technique, PDA medium, dose 1 ml/gm/lit., after seven days; for inhibition of growth at 1 mL or g/L: vs untreated control, read-out: % Inhibition of growth
# [2] = test system: Alternaria alternata; test: Alternaria leaf spot/blight on inoculated tomato plants (Ex. 28); assay type: in vivo; conditions: tomato plants, Alternaria alternata; after 7 days; dose 1 ml/gm/lit
# [3] = test system: tomato seedlings; test: Response of tomato plants, greenhouse growth (Ex. 30); assay type: in vivo; conditions: tomato seedlings, dose 1 ml/gm/lit; for Plant Height 5th Day / Stem Girth 5th Day / CCI 5th Day: 5th day after application; for Plant Height 10th Day / Stem Girth 10th Day / CCI 10th Day: 10th day after application; for Plant Height % Increase over pre on 10th Day / Stem Girth % Increase over pre on 10th Day / CCI % Increase over pre on 10th Day / Root Length (cm) 10th Day / Root Length % Increase over control: 10th day; for Root Length % Increase over control: vs water control
# [4] = test system: chili seedlings; test: Response of chili plants, greenhouse growth (Ex. 31); assay type: in vivo; conditions: chili seedlings, dose 1 ml/gm/lit; for CCI 5th Day / Plant Height (cm) 5th Day: 5th day after application; for CCI 10th Day / Plant Height (cm) 10th Day: 10th day after application; for CCI % Increase over pre on 10th Day / Plant Height % Increase over pre on 10th Day / Root Lenght (cm) 10th Day / Stem Girth % Increase over pre on 10th Day / Root Lenght % Increase over control: 10th day; for Root Lenght % Increase over control: vs water control
# [5] = test system: Aphid; conditions: Dose 1 ml/gm/lit.; for Total No. of dead insect at 48 Hrs.: 10 insects/treatment, 4 replications, cotton leaves
# [6] = test system: Mite; conditions: Dose 1 ml/gm/lit.; for Total No. of dead insect at 48 Hrs.: 10 insects/treatment, 4 replications, okra leaves
# [7] = test system: Mealy Bug; conditions: Mealy Bug on cotton leaves, dose 1 ml/gm/lit., 48 Hrs.; for Total No. of dead insect at 48 Hrs.: 10 insects/treatment, 4 replications; for % Corrected Mortality at 48 Hrs.: corrected for water control
# [8] = test system: Helicoverpa armigera; conditions: Helicoverpa armigera on okra fruits, dose 1 ml/gm/lit., 72 Hrs.; for Total No. of dead insect at 72 Hrs.: 10 insects/treatment, 4 replications; for % Corrected Mortality at 72 Hrs.: corrected for water control
# [9] = test system: Spodoptera litura; conditions: Spodoptera litura on castor leaves; dose 1 ml/gm/lit.; 10 insects/treatment; 72 hrs after application
# [10] = test system: Thrips; conditions: Thrips on cotton leaves; dose 1 ml/gm/lit.; 10 insects/treatment; 48 hrs after application
# [11] = test system: Aphid; conditions: Aphids on cotton plants, green house; dose 1 ml/gm/lit.; 10 insects/plant, 10 plants/treatment; 48 hrs
# [12] = test system: Mite; conditions: mite on okra plants, green house, dose 1 ml/gm/lit. spray; for % Mortality at 48 Hrs. / Total No. of dead insect at 48 Hrs.: 48 hrs after application; for % Corrected Mortality at 48 Hrs.: corrected for water control
# [13] = test system: Mealy Bug; conditions: mealy bug on cotton plants, green house, dose 1 ml/gm/lit. spray; for % Mortality at 48 Hrs. / Total No. of dead insect at 48 Hrs.: 48 hrs after application; for % Corrected Mortality at 48 Hrs.: corrected for water control
# [14] = test system: Helicoverpa armigera; conditions: Helicoverpa armigera 3rd instar on chickpea plants, dose 1 ml/gm/lit. spray; for % Mortality at 72 Hrs.: 72 hrs after application; for % Corrected Mortality at 72 Hrs.: corrected for water control
# [15] = test system: Spodoptera litura; conditions: Spodoptera litura 3rd instar on cabbage plants, dose 1 ml/gm/lit. spray; for % Mortality at 72 Hrs.: 72 hrs after application; for % Corrected Mortality at 72 Hrs.: corrected for water control
# [16] = test system: Thrips; conditions: thrips on cotton plants, greenhouse, dose 1 ml/gm/lit. spray; for % Mortality at 48 Hrs. / Total No. of dead insect at 48 Hrs.: 48 hrs after application; for % Corrected Mortality at 48 Hrs.: corrected for water control
# [17] = cited from earlier work
# [18] = test system: Spodoptera litura; test: whole plant or invertebrate; conditions: 72 h
# [19] = test system: Thrips; test: whole plant or invertebrate; conditions: in Gossypium hirsutum, 48 h
# [20] = test system: Aphid; test: whole plant or invertebrate; conditions: 48 h
# [21] = Table 13, descriptive, no test described
# [22] = read-out: % Corrected Mortality at 72 Hrs.
# [23] = read-out: % Mortality at 72 Hrs.
# [24] = read-out: % Corrected Mortality at 48 Hrs.
# [25] = read-out: % Mortality at 48 Hrs.
compound,measurement,setting,value
Cc1ccc(C(C)C)cc1O [Carvacrol],Mean colony Diameter (mm),[1],52.50 mm
same,inhibition of growth at 1 mL or g/L,[1],40.3%
same,% Disease reduction over Control,[2],47.93%
same,Plant Height 5th Day,[3],6.38 cm
same,Stem Girth 5th Day,[3],2.05 mm
same,Plant Height 10th Day,[3],7.23 cm
same,Stem Girth 10th Day,[3],2.35 mm
same,Plant Height % Increase over pre on 10th Day,[3],32.66%
same,Stem Girth % Increase over pre on 10th Day,[3],63.42%
same,CCI 5th Day,[3],13.62
same,CCI % Increase over pre on 10th Day,[3],33.70%
same,Root Length (cm) 10th Day,[3],4.25 cm
same,CCI 10th Day,[3],15.87
same,Root Length % Increase over control,[3],27.69%
same,CCI 5th Day,[4],14.95
same,Plant Height (cm) 5th Day,[4],6.33 cm
same,CCI % Increase over pre on 10th Day,[4],64.84%
same,Plant Height % Increase over pre on 10th Day,[4],65.77%
same,Root Lenght (cm) 10th Day,[4],3.97 cm
same,Stem Girth % Increase over pre on 10th Day,[4],49.25%
same,CCI 10th Day,[4],15
same,Plant Height (cm) 10th Day,[4],7.57 cm
same,Root Lenght % Increase over control,[4],44.94%
same,Total No. of dead insect at 48 Hrs.,[5],7.00
same,% Corrected Mortality at 48 Hrs.,[5]; 48 hrs,65.71%
same,% Mortality at 48 Hrs.,[5]; 48 hrs,70.00%
same,Total No. of dead insect at 48 Hrs.,[6],4.25
same,% Corrected Mortality at 48 Hrs.,[6],37.84%
same,% Mortality at 48 Hrs.,[6],42.50%
same,Total No. of dead insect at 48 Hrs.,[7],6.75
same,% Mortality at 48 Hrs.,[7],67.50%
same,% Corrected Mortality at 48 Hrs.,[7],65.79%
same,Total No. of dead insect at 72 Hrs.,[8],5.50
same,% Mortality at 72 Hrs.,[8],55.00%
same,% Corrected Mortality at 72 Hrs.,[8],55.00%
same,Total No. of dead insect at 72 Hrs.,[9],4.50
same,Total No. of dead insect at 48 Hrs.,[10],3.50
same,Total No. of dead insect at 48 Hrs.,[11],72.50
same,% Mortality at 48 Hrs.,[12],47.50%
same,Total No. of dead insect at 48 Hrs.,[12],47.50
same,% Corrected Mortality at 48 Hrs.,[12],44.74%
same,% Mortality at 48 Hrs.,[13],65.00%
same,Total No. of dead insect at 48 Hrs.,[13],65.00
same,% Corrected Mortality at 48 Hrs.,[13],61.11%
same,% Mortality at 72 Hrs.,[14],52.50%
same,% Corrected Mortality at 72 Hrs.,[14],52.50%
same,% Mortality at 72 Hrs.,[15],47.50%
same,% Corrected Mortality at 72 Hrs.,[15],44.74%
same,% Mortality at 48 Hrs.,[16],32.50%
same,Total No. of dead insect at 48 Hrs.,[16],32.50
same,% Corrected Mortality at 48 Hrs.,[16],25.00%
same,Acaricidal Activity - Mode of action,[17]; [21],Has acaricidal activities
same,Antifungal Activity - Mode of action,[17]; [21],Antifungal activities
same,Antioxidant Activity - Mode of action,[17]; [21],Antioxidant activities
same,Bactericidal Activity - Mode of action,[17]; [21],Exhibits antibacterial
same,Insecticidal Activities - Mode of action,[17]; [21],Insecticidal toxicities
same,Nematicidal Activity - Mode of action,[17]; [21],Effective against plant
same,mortality at 1 mL or g/L,[18]; [22],42.1%
same,mortality at 1 mL or g/L,[18]; [23],45%
same,mortality at 1 mL or g/L,[19]; [24],25.7%
same,mortality at 1 mL or g/L,[19]; [25],35%
same,mortality at 1 mL or g/L,[20]; [24],67.7%
same,mortality at 1 mL or g/L,[20]; [25],72.5%
O=C(/C=C/C=C/c1ccc2c(c1)OCO2)N1CCCCC1 [Piperine],Mean colony Diameter (mm),[1],52.00 mm
same,inhibition of growth at 1 mL or g/L,[1],40.9%
same,% Disease reduction over Control,[2],53.72%
same,Plant Height 5th Day,[3],6.41 cm
same,Stem Girth 5th Day,[3],1.80 mm
same,Plant Height 10th Day,[3],7.02 cm
same,Stem Girth 10th Day,[3],2.24 mm
same,Plant Height % Increase over pre on 10th Day,[3],30.48%
same,Stem Girth % Increase over pre on 10th Day,[3],57.52%
same,CCI 5th Day,[3],13.89
same,CCI % Increase over pre on 10th Day,[3],20.71%
same,Root Length (cm) 10th Day,[3],3.93 cm
same,CCI 10th Day,[3],14.63
same,Root Length % Increase over control,[3],18.18%
same,CCI 5th Day,[4],13.30
same,Plant Height (cm) 5th Day,[4],6.30 cm
same,CCI % Increase over pre on 10th Day,[4],38.67%
same,Plant Height % Increase over pre on 10th Day,[4],54.78%
same,Root Lenght (cm) 10th Day,[4],3.25 cm
same,Stem Girth % Increase over pre on 10th Day,[4],39.49%
same,CCI 10th Day,[4],14.2
same,Plant Height (cm) 10th Day,[4],7.12 cm
same,Root Lenght % Increase over control,[4],18.81%
same,Total No. of dead insect at 48 Hrs.,[5],7.00
same,% Corrected Mortality at 48 Hrs.,[5]; 48 hrs,65.71%
same,Total No. of dead insect at 48 Hrs.,[6],6.25
same,% Corrected Mortality at 48 Hrs.,[6],59.46%
same,% Mortality at 48 Hrs.,[6],62.50%
same,Total No. of dead insect at 48 Hrs.,[7],5.25
same,% Mortality at 48 Hrs.,[7],52.50%
same,% Corrected Mortality at 48 Hrs.,[7],50.00%
same,Total No. of dead insect at 72 Hrs.,[8],7.00
same,% Mortality at 72 Hrs.,[8],70.00%
same,% Corrected Mortality at 72 Hrs.,[8],70.00%
same,Total No. of dead insect at 72 Hrs.,[9],7.25
same,Total No. of dead insect at 48 Hrs.,[10],4.00
same,Total No. of dead insect at 48 Hrs.,[11],70.00
same,% Mortality at 48 Hrs.,[12],60.00%
same,Total No. of dead insect at 48 Hrs.,[12],60.00
same,% Corrected Mortality at 48 Hrs.,[12],57.89%
same,% Mortality at 48 Hrs.,[13],57.50%
same,Total No. of dead insect at 48 Hrs.,[13],57.50
same,% Corrected Mortality at 48 Hrs.,[13],52.78%
same,% Mortality at 72 Hrs.,[14],67.50%
same,% Corrected Mortality at 72 Hrs.,[14],67.50%
same,% Mortality at 72 Hrs.,[15],70.00%
same,% Corrected Mortality at 72 Hrs.,[15],68.42%
same,% Mortality at 48 Hrs.,[16],32.50%
same,Total No. of dead insect at 48 Hrs.,[16],32.50
same,% Corrected Mortality at 48 Hrs.,[16],25.00%
same,Acaricidal Activity - Mode of action,[17]; [21],Cause dehydration of mites
same,Antifungal Activity - Mode of action,[17]; [21],Inhibition of the fungal
same,Phytotonic Effect,"[17]; Table 13, effect on plants, descriptive",Boost plant
same,mortality at 1 mL or g/L,[18]; [22],71%
same,mortality at 1 mL or g/L,[18]; [23],72.5%
same,mortality at 1 mL or g/L,[19]; [24],31.4%
same,mortality at 1 mL or g/L,[19]; [25],40%
same,mortality at 1 mL or g/L,[20]; [24],64.7%
same,mortality at 1 mL or g/L,[20]; [25],70%

# Reference: US20250351832A1, “PHYTOCHEMICALS AS BIOPESTICIDES AND BIOSTIMULANTS” (KAY BEE BIO ORGANICS PVT. LTD., priority 2024, published 2025)
